Laboratory results reported in patent US20240382564A1, “Methods and Compositions for Treating Muscular Dystrophy and Memory Impairment” (Allysta Pharmaceuticals, Inc., priority 2023, published 2024).
Where no end group is shown, it is not given here. [ ]: non-standard residue; d: D form. Nva = CCC[C@H](N)C(=O)O

Experiments:
Assay type in all cases: in vivo, mouse
D2.mdx mice [1] = assay: Muscle cytokine protein profiling (LEGENDplex); conditions: HD
Experimental: (§1) D2.mdx mice were treated with ALY688 at two different dosages; high dose (HD; 15 mg/kg body weight/day) or low dose (LD; 3 mg/kg body weight/day) dissolved in saline. A separate group of mice were treated with saline alone (VEH, vehicle). Treatment was provided via subscapular subcutaneous injections from 7 days of age to 28-30 days. […] At 28-30 days of age, mice were anaesthetized with isoflurane vaporized in medical air (21% oxygen) at a 2 L/min flow rate. Due to tissue limitations in limb muscle, certain measures were performed separately in tibialis anterior and quadriceps across several phases of breeding. Following the treatment protocol, in situ quadriceps force assessments were then performed in one limb followed by removal of the quadriceps from the other limb for mitochondrial assessments, diaphragm for in vitro force assessments and finally other tissues for further processing as described below. Muscle and visceral organs weights were normalized to tibia length. Tissue collected from the first phase were utilized in force, histological, mitochondrial measures (respiration, mH2O2 and calcium retention capacity) and western analyses (diaphragm and quadriceps only). A second phase was then collected and utilized for cytokine profiling, qPCR analyses and additional westerns (TA only). Serum was collected from both phase 1 and 2 and utilized for serum CK analysis. All animals were utilized in in vivo functional assays (grip strength, cage hang time and voluntary wheel running).
Tibialis anterior and diaphragm samples were homogenized in lysis buffer containing (in mM) (20 Tris/HCl, 150 NaCl, 1 EDTA, 1 EGTA, 1% Triton X-100, 2.5 Na4O7P2, 1 Na3VO4, pH 7.0) supplemented with protease (Roche) and phosphatase inhibitors (Sigma). Samples were diluted two-fold in the assay buffer before loading to the plates with beads. According to the manufacturer's instructions, levels of TGF-β, TNF-α, IL-1β, IL-6 and IL-10 in the homogenates were measured using LEGENDplex™ Mouse Custom Panel. Assay was performed in the Attune NxT flow cytometer (Thermo Fisher). The FCS files generated on the flow cytometer were analyzed using the LEGENDplex™ cloud-based analysis software.

D2.mdx mice [2] = assay: Mitochondrial H2O2 emission in permeabilized muscle fibre bundles
Experimental: as §1
The quadriceps from the non-stimulated limb and the diaphragm were collected and quickly placed in a buffer containing (in mM) 50 MES Hydrate, 7.23 K2EGTA, 2.77 CaK2EGTA, 20 imidazole, 0.5 dithiothreitol, 20 taurine, 5.77 ATP, 15 PCr, and 6.56 MgCl2·6H2O (pH 7.1). Both muscles were trimmed of connective tissue and fat and separated along the longitudinal axis into small bundles weighing approximately 1.0-2.5 mg wet weight for respiration and mH2O2 and 0.5-1.5 mg wet weight for calcium retention capacity. Bundles were permeabilized with […] saponin (Sigma Aldrich; St. Louis, MI, USA) in BIOPS on a platform rotor for 30 minutes at 4° C. The permeabilized bundles were then transferred to wash buffers to remove saponin as follows: MiRO5 for mitochondrial respiration, Buffer Z for mitochondrial H2O2 emission (mH2O2), and Buffer Y for calcium retention capacity. The composition of each buffer has been described previously. Fibres prepared for pyruvate-supported mitochondrial H2O2 emission (mH2O2) were permeabilized in the presence of 35 μM 2,4-dinitrochlorobenzene (CDNB) to deplete glutathione and enhance the detection of mH2O2. All bioenergetic assays were performed within 4 hours of washing to maintain fibre viability.
Briefly, mH2O2 was determined spectrofluorometrically (QuantaMaster 40, HORIBA Scientific, Irvine, CA, USA) utilizing Buffer Z containing 10 μM Amplex Ultra Red (Life Technologies; Carlsbad, CA, USA), 1 U/mL horseradish peroxidase, 1 mM EGTA, 40 U/mL Cu/Zn SOD1, 5 μM blebbistatin and 20 mM Cr. […] The ability of ADP to suppress mH2O2 was assessed with a titration of physiological concentrations (25, 100) and saturating for oxidant generation (500 μM). […] The rate of mH2O2 emission was calculated using a standard curve under the same assay conditions and then normalized to fibre bundle dry weight.

D2.mdx mice [3] = assay: Mitochondrial respiration in permeabilized muscle fibre bundles; conditions: quadriceps and diaphragm; multiple substrate conditions; LD and HD
Experimental: D2.mdx mice were treated with ALY688 at two different dosages; high dose (HD; 15 mg/kg body weight/day) or low dose (LD; 3 mg/kg body weight/day) dissolved in saline. A separate group of mice were treated with saline alone (VEH, vehicle). Treatment was provided via subscapular subcutaneous injections from 7 days of age to 28-30 days. […] At 28-30 days of age, mice were anaesthetized with isoflurane vaporized in medical air (21% oxygen) at a 2 L/min flow rate. Due to tissue limitations in limb muscle, certain measures were performed separately in tibialis anterior and quadriceps across several phases of breeding. Following the treatment protocol, in situ quadriceps force assessments were then performed in one limb followed by removal of the quadriceps from the other limb for mitochondrial assessments, diaphragm for in vitro force assessments and finally other tissues for further processing as described below. […]
High resolution oxygen consumption (an index of mitochondrial respiration) was performed in 2 mL of MiRO5 supplemented with (creatine-dependent) or without (creatine independent) 20 mM creatine to saturate mitochondrial creatine kinase activity. O2 consumption was measured using the Oroboros Oxygraph-2K (Oroboros Instruments, Corp., Innsbruck, Austria) while stirring at 37° C. in the presence of 5 μM blebbistatin to prevent muscle fibre contraction by rigor in response to ADP. […]

## [dN]IP[Nva]LY[dS]FA[dS]-NH2 [ALY688]
D2.mdx mice [1]; diaphragm
  IL-6 protein content: 69.1 % increase vs VEH
  IL-10 protein content: not different between groups
  TGF-β protein content: 20.3 % increase vs VEH
  TNF-α protein content: not different between groups
D2.mdx mice [1]; tibialis anterior, VEH 40.6 pg/ml, not detectable in wildtype
  prevention of the increase in TNF-α protein content: 83.9%
D2.mdx mice [2]; diaphragm, HD
  mitochondrial responsiveness to ADP (pyruvate/malate-supported mH2O2 emission): completely preserved
D2.mdx mice [2]; diaphragm, HD, across ADP concentrations
  reduction of pyruvate/malate-supported mH2O2 emission: 8.7 to 70.7%
D2.mdx mice [2]; diaphragm, absence and presence of creatine, LD and HD
  succinate-induced mH2O2 emission: no effect of either drug dose
D2.mdx mice [2]; quadriceps, both doses, absence and presence of creatine
  attenuation of succinate-induced mH2O2 emission: 11.3 to 73.6%
D2.mdx mice [2]; quadriceps, both doses, across ADP concentrations
  attenuation of pyruvate/malate-supported mH2O2 emission: 45.9 to 62.3%
D2.mdx mice [3]
  ADP-stimulated respiration: generally no effect of either dose
